In article PMC10920779, “Targeting P2Y14R protects against necroptosis of intestinal epithelial cells through PKA/CREB/RIPK1 axis in ulcerative colitis” (Nature Communications, 2024):
Several values for one entry are separate records, joined by “and”; a condition that tells them apart may be missing. Identical values can stand only once.

Key:
P2Y14R [1] = target: T1, P2Y14R (Homo sapiens, UniProt Q15391); assay: cAMP production assay for P2Y14R antagonistic activity in P2Y14-HEK293 cells
T1 sequence (Q15391 1-338): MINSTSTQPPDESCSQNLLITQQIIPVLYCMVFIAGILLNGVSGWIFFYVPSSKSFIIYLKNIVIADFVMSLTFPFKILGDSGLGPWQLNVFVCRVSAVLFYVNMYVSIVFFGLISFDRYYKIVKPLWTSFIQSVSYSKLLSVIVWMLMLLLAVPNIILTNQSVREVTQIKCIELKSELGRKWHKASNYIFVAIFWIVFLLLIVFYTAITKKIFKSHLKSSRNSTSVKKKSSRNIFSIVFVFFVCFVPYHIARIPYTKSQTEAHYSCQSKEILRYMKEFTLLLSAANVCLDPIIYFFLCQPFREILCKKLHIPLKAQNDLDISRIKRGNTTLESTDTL
Description: Data points shown are the mean values of at three independent experiments, each performed in duplicate. […] The data obtained from three independent experiments and represented as mean ± SD. Statistical significance was determined by One-way ANOVA with Tukey multiple comparison test.

P2Y14R [2] = target: T1, P2Y14R; assay: Cellular thermal shift assay (CETSA) in P2Y14-HEK293 cells; type: binding
[3] = system: apoptosis and pyroptosis of IECs; assay: Apoptosis and pyroptosis markers in IECs of DSS-treated mice (TUNEL, cleaved caspase-3, Bcl-2, Bax, GSDMD-NT, caspase-1 p20); type: in vivo, mouse; parameters: GSDMD / caspase-1 / caspase-3: scale not given here; settings: for BAX/BCL / GSDMD / caspase-1 / caspase-3: replicates
Description: Tissues and cells were lysed using RIPA lysis buffer (Beyotime Biotechnology) containing protease and phosphatase inhibitor, homogenated, and centrifuged. The protein concentration was determined by BCA protein assay (Beyotime Biotechnology). Equal concentrations of proteins were separated in a 10% SDS-PAGE and transferred to PVDF membrane. The membrane was blocked using 5% milk in TBST, probed with primary antibody, RIPK1 (17519-1-AP, Proteintech, 1:1000), MLKL (GTX107538-100, GeneTex, 1:1000), RIPK3 (17563-1-AP, Proteintech, 1:1000), p-MLKL (EPR9514, Abcam, 1:1000), PKA (bs-0520R, Bioss, 1:1000), p-PKA (#9621, Cell signaling, 1:1000), CREB (AF6188, Affinity, 1:1000), p-CREB (AF3189, Affinity, 1:1000), P2Y14R (bs-12028R, Bioss, 1:1000), GSDMD (ab209845, Abcam, 1:1000), Caspase1 p20 (bs-10442R, Bioss, 1:1000), Bcl-2 (bs-0032R, Bioss, 1:1000), Bax (AF0120, Affinity, 1:1000), Caspase-3 p-17 (Cell Signaling Technology, #9664, 1:1000), β-actin (bs-0061R, Bioss, 1:1000), GAPDH (BS-2188R, Bioss, 1:1000) and corresponding HRP-conjugated antibodies Goat Anti-Rabbit IgG H&L Antibody (bioss, Bs-0295G, 1:8000) or Goat Anti-Mouse IgG H&L Antibody (bioss, Bs-0296G, 1:8000). Densitometry was quantified using ImageJ software.
Immunofluorescence staining was performed using paraffin-embedded tissues as mentioned before. For immunofluorescence, the paraffin slides were deparaffinized, rehydrated, blocked and treated according to a standard protocol. The expression of intestinal barrier associated tight junction protein, P2Y14R and EpCAM was evaluated by probing the tissues with primary antibody against Claudin-1 (bioss, bs-10011R, 1:300), Occludin (bioss, DF6919, 1:300), ZO-1 (Affinity, AF5145, 1:300), EpCAM (AiFang, AF04654, 1:300), Caspase-3 p-17 (Cell Signaling Technology, #9664, 1:1000) and P2Y14R (Invitrogen, PAS-103202, 1:300) overnight at 4°C followed by 1 h incubation with the corresponding secondary antibody Goat Anti-Mouse IgG H&L (Alexa Fluor® 555) (ab150114, Abcam, 1:500) or Goat Anti-Rabbit IgG H&L (Alexa Fluor® 488) (ab150077, Abcam, 1:300). All slides were incubated with DAPI (S2110, Solarbio) for 10 min to show the location of the nucleus. Images were captured with a confocal microscope (LSM 800, Zeiss).
TUNEL staining was performed using paraffin-embedded tissues as mentioned before. The staining was performed with apoptosis kit (11684817910, Roche) to detect apoptotic cells in colon sections according to the instructions of manufacturer. After the paraffin sections conventional dewaxing to water, performed the antigen recovery with protease K working solution at 37°C for 22 min. Then incubated the sections with permeabilize working solution at room temperature for 20 min. Next, take appropriate amount of TDT enzyme, dUTP and buffer in the tunel kit according to the number of slices and tissue size and mix at 1:5:50 ratio, and used to incubate the tissues at 37°C for 1 h. Finally, the DAPI dye (S2110, Solarbio) was used to stain nucleus at room temperature for 10 min. Images were captured with NanoZoomer S60 (C13210-01, Hamamatsu).

intestinal organoids = assay: TSZ-induced necroptosis in intestinal organoids (PI staining); type: cell-based, mouse; settings: P2Y14Rfl/fl organoids, pre-treated with compound
Description: Crypts were released from the murine small intestine by incubation for 30 min at 4°C in PBS containing 2 mM EDTA. Isolated crypts were counted and pelleted. […] Organoid media were changed every 3 days. […] Dead cell imaging in live organoids was performed on the fluorescence microscope (BX53, Olympus Optical), and analyzed by image j.

Solubility = type: physicochemical; settings: compared with compound D4
[4] = parameters: method as in PMID 24138077; settings: cited from earlier work

## Brc1ccc(NCc2nc3ccccc3o2)cc1 [HDL-16]
P2Y14R [1]
  IC50: 310 pM
P2Y14R [1]; 10 nM, 0.01 µM
  Inhibition of cAMP production in P2Y14-HEK293 cells, Inhibition (%): 84.08% and 80.86%
P2Y14R [1]; 100 nM, 0.1 µM
  Inhibition of cAMP production in P2Y14-HEK293 cells, Inhibition (%): 122.69% and 101.65% and 74.17%
P2Y14R [1]; read-out: Inhibition of cAMP production in P2Y14-HEK293 cells, Inhibition (%), 10 nM
  inhibition at 0.01 µM: 94%
P2Y14R [2]; 10 µM, high temperature 50°C to 60°C
  Thermal stability of P2Y14R: increased the thermal stability of P2Y14R
P2Y14R [2]; 50 °C
  p2y14/actin: 0.9863 and 0.7504 and 1.263
P2Y14R [2]; 52 °C
  p2y14/actin: 0.8682 and 0.8052 and 1.097
P2Y14R [2]; 54 °C
  p2y14/actin: 0.8235 and 0.8131 and 0.9578
P2Y14R [2]; 56 °C
  p2y14/actin: 0.6752 and 0.6905 and 0.8001
P2Y14R [2]; 58 °C
  p2y14/actin: 0.4486 and 0.4259 and 0.4526
P2Y14R [2]; 60 °C
  p2y14/actin: 0.3634 and 0.3497 and 0.2374
P2Y14R [2]; con 0.001 µM
  p2y14/actin: 0.1618 and 0.1023 and 0.1705
P2Y14R [2]; con 0.1 µM
  p2y14/actin: 0.6503 and 0.6207 and 0.4614
P2Y14R [2]; con 1 µM
  p2y14/actin: 0.7977 and 0.6147 and 1.014
P2Y14R [2]; con 10 µM
  p2y14/actin: 1.142 and 0.89 and 0.9685
P2Y14R [2]; different concentrations
  Melting temperature (Tm) of P2Y14R: increased the melting temperature (Tm) of P2Y14R in a dose-dependent manner
[3]; DSS+HDL-16-H (high dose)
  BAX/BCL: 7.829 and 4.146 and 3.473 and 3.902 and 4.249
  GSDMD: 1.314 and 1.225 and 1.812 and 1.35 and 1.898
  caspase-1: 2.375 and 1.892 and 1.815 and 1.586 and 3.381
  caspase-3: 2.22 and 2.236 and 2.6476 and 2.354 and 2.345
[3]; DSS+HDL-16-L (low dose)
  BAX/BCL: 6.676 and 3.513 and 3.416 and 6.035 and 4.817
  GSDMD: 1.693 and 1.518 and 1.46 and 1.354 and 1.839
  caspase-1: 2.037 and 2.2873 and 0.9771 and 2.5083 and 2.278
  caspase-3: 2.396 and 2.3353 and 3.098 and 2.578 and 2.264
[3]; DSS-induced inflammation, TUNEL and western blot
  Apoptosis and pyroptosis of IECs: did not influence the apoptosis and pyroptosis
Intestinal organoids
  TSZ-induced necroptosis of organoids (PI staining): protected P2Y14R^fl/fl organoids from TSZ-induced necroptosis
Solubility
  Solubility: increased solubility

## O=C(O)c1cc(-c2ccc(C3CCNCC3)cc2)c2ccc(-c3ccc(C(F)(F)F)cc3)cc2c1 [PPTN, reference compound]
[4]
  Oral bioavailability: low oral bioavailability
